Reference: ChEMBL document CHEMBL1137062, “Evaluation of by disubstituted acridone derivatives as telomerase inhibitors: the importance of G-quadruplex binding” (Bioorg Med Chem Lett, 2004)

Experiments:
A2780 = experiment: Concentration required to inhibit 50% of human carcinoma A2780 cell lines; format: functional, cell-based
[1] = Concentration required to inhibit 50% of human carcinoma CH1 cell lines; format: functional, cell-based
[2] = target: Telomerase reverse transcriptase (Homo sapiens, UniProt O14746); experiment: Concentration required to inhibit 50% of telomerase activity
Telomerase reverse transcriptase, sequence (O14746 whole entry): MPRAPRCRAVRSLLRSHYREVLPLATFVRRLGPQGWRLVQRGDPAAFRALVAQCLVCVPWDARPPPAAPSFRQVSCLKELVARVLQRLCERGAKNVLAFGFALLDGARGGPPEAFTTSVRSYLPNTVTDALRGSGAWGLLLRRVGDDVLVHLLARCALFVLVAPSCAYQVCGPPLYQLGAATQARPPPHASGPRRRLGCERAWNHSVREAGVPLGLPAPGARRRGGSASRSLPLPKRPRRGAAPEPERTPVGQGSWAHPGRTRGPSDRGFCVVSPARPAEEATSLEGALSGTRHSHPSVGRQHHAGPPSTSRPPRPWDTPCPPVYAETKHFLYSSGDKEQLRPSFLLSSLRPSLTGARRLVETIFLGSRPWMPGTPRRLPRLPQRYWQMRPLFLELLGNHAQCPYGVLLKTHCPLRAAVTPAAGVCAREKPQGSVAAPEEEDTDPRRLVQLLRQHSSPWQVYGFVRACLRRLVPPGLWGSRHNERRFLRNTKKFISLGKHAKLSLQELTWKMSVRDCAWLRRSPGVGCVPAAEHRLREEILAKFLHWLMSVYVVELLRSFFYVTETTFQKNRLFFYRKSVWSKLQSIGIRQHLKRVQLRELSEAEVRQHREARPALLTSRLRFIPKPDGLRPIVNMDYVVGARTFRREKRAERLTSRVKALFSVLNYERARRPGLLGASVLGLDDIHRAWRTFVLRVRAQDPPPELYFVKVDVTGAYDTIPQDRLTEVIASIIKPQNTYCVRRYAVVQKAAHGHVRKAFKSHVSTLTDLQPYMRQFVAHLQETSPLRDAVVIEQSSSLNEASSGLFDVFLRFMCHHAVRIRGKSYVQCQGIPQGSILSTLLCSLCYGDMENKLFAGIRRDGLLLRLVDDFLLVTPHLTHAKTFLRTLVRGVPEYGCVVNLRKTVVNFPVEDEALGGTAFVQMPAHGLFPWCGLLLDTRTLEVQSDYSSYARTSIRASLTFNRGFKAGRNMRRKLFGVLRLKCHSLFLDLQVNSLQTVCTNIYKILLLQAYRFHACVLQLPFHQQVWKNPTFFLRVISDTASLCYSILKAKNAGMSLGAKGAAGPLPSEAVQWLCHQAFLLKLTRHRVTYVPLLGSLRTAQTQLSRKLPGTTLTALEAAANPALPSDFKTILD

SK-OV-3 = experiment: Concentration required to inhibit 50% of human carcinoma SKOV3 cell lines; format: functional, cell-based

SMILES | IC50 (A2780) [µM] | IC50 [1] [µM] | EC50 [2] [nM] | IC50 (SK-OV-3) [µM]
c1cc2cc3ccc(N4CCCCC4)cc3nc2cc1N1CCCCC1 | 1.7 | 2.3 | 2800 | 0.5
O=C(CCN1CCCCC1)Nc1ccc2c(O)c3ccc(NC(=O)CCN4CCCCC4)cc3nc2c1 | 19 | 13 | 5900 | 21
O=C(CCN1CCCCC1CO)Nc1ccc2c(O)c3cc(NC(=O)CCN4CCCCC4CO)ccc3nc2c1 (centres undefined) | 11.2 | 25 | 200 | 25
CCN(CC)CCC(=O)Nc1ccc2c(O)c3ccc(NC(=O)CCN(CC)CC)cc3nc2c1 | > 25 | > 25 | 5700 | > 25
CC[n+]1c(-c2ccccc2)c2cc(N)ccc2c2ccc(N)cc21 [HOMIDIUM BROMIDE] | 0.1 | 0.4 | – | 4.5
c1cc2cc3ccc(N4CCCC4)cc3nc2cc1N1CCCC1 | 27 | 8.2 | 5200 | 2.6
CCN(CC)CCC(=O)Nc1ccc2c(O)c3cc(NC(=O)CCN(CC)CC)ccc3nc2c1 | 16 | 25 | 700 | 25
O=C(CCN1CCC(O)CC1)Nc1ccc2c(O)c3ccc(NC(=O)CCN4CCC(O)CC4)cc3nc2c1 | > 25 | > 25 | 1700 | > 25
O=C(CCN1CCCC1)Nc1ccc2nc3ccc(NC(=O)CCN4CCCC4)cc3c(O)c2c1 | > 25 | > 25 | 5800 | > 25
CN(C)CCC(=O)Nc1ccc2c(O)c3ccc(NC(=O)CCN(C)C)cc3nc2c1 | > 25 | > 25 | 4300 | > 25
O=C(CCN1CCCCC1)Nc1ccc2nc3ccc(NC(=O)CCN4CCCCC4)cc3c(O)c2c1 | > 25 | > 25 | 1900 | > 25
O=C(CCN1CCCCC1)Nc1ccc2c(O)c3cc(NC(=O)CCN4CCCCC4)ccc3nc2c1 | 5.6 | 25 | 400 | 25
CN(C)CCC(=O)Nc1ccc2nc3ccc(NC(=O)CCN(C)C)cc3c(O)c2c1 | > 25 | > 25 | 600 | > 25
CC1CCCCN1CCC(=O)Nc1ccc2c(O)c3ccc(NC(=O)CCN4CCCCC4C)cc3nc2c1 (centres undefined) | 13 | 11 | 2300 | 10.5
O=C(CCN1CCC(O)CC1)Nc1ccc2nc3ccc(NC(=O)CCN4CCC(O)CC4)cc3c(O)c2c1 | > 25 | > 25 | 2300 | > 25

More lines, now with the values ahead:

IC50 (A2780) [µM] | IC50 [1] [µM] | EC50 [2] [nM] | IC50 (SK-OV-3) [µM] | SMILES
11.8 | 11 | 1900 | 10.5 | CCN1CCN(CCC(=O)Nc2ccc3c(O)c4ccc(NC(=O)CCN5CCN(CC)CC5)cc4nc3c2)CC1
3 | 3 | 1700 | 5.6 | CC1CCN(CCC(=O)Nc2ccc3c(O)c4ccc(NC(=O)CCN5CCC(C)CC5)cc4nc3c2)CC1
> 25 | > 25 | 8100 | > 25 | O=C(CCN1CCCC1)Nc1ccc2c(O)c3ccc(NC(=O)CCN4CCCC4)cc3nc2c1
> 25 | 25 | 200 | 25 | CC1CCN(CCC(=O)Nc2ccc3c(O)c4cc(NC(=O)CCN5CCC(C)CC5)ccc4nc3c2)CC1
> 25 | > 25 | 1900 | > 25 | CN1CCN(CCC(=O)Nc2ccc3nc4ccc(NC(=O)CCN5CCN(C)CC5)cc4c(O)c3c2)CC1
0.6 | 2.5 | 5800 | 2.3 | CCN(CC)c1ccc2cc3ccc(N(CC)CC)cc3nc2c1
> 25 | > 25 | 4900 | > 25 | O=C(CCN1CCOCC1)Nc1ccc2c(O)c3ccc(NC(=O)CCN4CCOCC4)cc3nc2c1
3.5 | 25 | 200 | 25 | O=C(CCN1CCC(O)CC1)Nc1ccc2c(O)c3cc(NC(=O)CCN4CCC(O)CC4)ccc3nc2c1
> 25 | > 25 | 2300 | > 25 | CC1CCCCN1CCC(=O)Nc1ccc2nc3ccc(NC(=O)CCN4CCCCC4C)cc3c(O)c2c1 (centres undefined)
13 | 11.8 | 2300 | 12 | CCC1CCCCN1CCC(=O)Nc1ccc2c(O)c3ccc(NC(=O)CCN4CCCCC4CC)cc3nc2c1 (centres undefined)
